The values that follow come from ChEMBL document CHEMBL1201862, “PubChem BioAssay data set” (2004).

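A five-concentration, 48-hour dose response in 96-well plates underlies each endpoint, interpolated linearly between surrounding concentrations. GI50 = concentration required for 50% inhibition of growth.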 Active and inactive are the calls of the source. Cut-off read from the data, not from the text of the source: active = GI50 up to about 1.1 µM and inactive = higher. Some results are limits rather than exact numbers.

Some test systems named below: RXF 631; KM-20L2; DMS-273; HOP-18; LXFL 529; M19-MEL; XF498; SNB-78; BT-549.
What all share (experiment): inhibition of tumour cell growth, NCI panel, 48 h

Turning to `N=C(N)NS(=O)(=O)c1ccc(Nc2c3ccccc3nc3c(C(=O)Nc4ccc(S(N)(=O)=O)cc4)ccc(Cl)c23)cc1`, the GI50 in the assay with RXF 631, in the assay on KM-20L2, in the assay with DMS-273, with HOP-18, in the assay on LXFL 529 and with M19-MEL was > 100 µM (inactive) throughout. Besides, the GI50 with XF498 is > 100 µM (inactive); in the assay on SNB-78 it was 65.5 µM (inactive).

On to `N#CCC(=O)N1CCCOCCC1`, for which the GI50 with RXF 631, in the assay with KM-20L2, with DMS-273, in the assay on LXFL 529, in the assay on M19-MEL and in the assay on SNB-78 was > 100 µM (inactive) in each case.

Consider `COc1ccc(-c2cc(=O)c3cc(O)ccc3o2)c(OC)c1OC`, for which the GI50 in the assay on RXF 631 was 33.2 µM (inactive); with KM-20L2, 19.3 µM (inactive); in the assay on LXFL 529 it was 30.6 µM (inactive); in the assay with M19-MEL, 45.3 µM (inactive); with XF498, 30.5 µM (inactive).

For the compound `O=C(CC(=O)N1N=C(n2ccc3ccccc32)CC1c1ccccc1)Nc1ccccc1Cl` (centres undefined), the GI50 in the assay with RXF 631, in the assay on KM-20L2, in the assay on DMS-273, in the assay on HOP-18, in the assay on LXFL 529 and in the assay with M19-MEL was > 100 µM (inactive) each time. In addition, in the assay with SNB-78, the GI50 was > 100 µM (inactive).

With `CC1C2C=C(O)C(=O)C(C2=O)C1c1ccccc1` (centres undefined), the GI50 in the assay on RXF 631 is > 100 µM (inactive); in the assay on KM-20L2, 38.6 µM (inactive); in the assay on DMS-273, > 100 µM (inactive); in the assay with LXFL 529, > 100 µM (inactive); with M19-MEL, > 100 µM (inactive); in the assay with SNB-78 it was 87.5 µM (inactive).

For `COc1ccc(/N=C\c2ccc(N(CCC#N)CCC#N)cc2)cc1`, the GI50 with BT-549 is > 38.9 µM (inactive); in the assay with KM-20L2 it was 9.68 µM (inactive); in the assay on DMS-273, 31.4 µM (inactive); with HOP-18 it was > 100 µM (inactive); in the assay on LXFL 529 it was 7.11 µM (inactive); with M19-MEL, 34.1 µM (inactive). The GI50 in the assay on XF498 and in the assay with SNB-78 was > 100 µM (inactive) each time.

Take `COC1=CC(=O)c2c(O)c3c(c(O)c2C1=O)C[C@](C)(O)C[C@@H]3O`: the GI50 with RXF 631 was 1.95 µM (inactive); with BT-549, 7.76 µM (inactive); in the assay on KM-20L2, > 100 µM (inactive); in the assay with DMS-273, 1.57 µM (inactive); with LXFL 529, 3.81 µM (inactive); with M19-MEL it was 0.296 µM (active). Moreover, the GI50 in the assay on XF498 is 2.86 µM (inactive); in the assay on SNB-78 it was 3.85 µM (inactive).

`CC(C)(C)C(=C[S+]([O-])/N=C/c1ccccc1)C(C)(C)C` (centres undefined): the GI50 in the assay on RXF 631 is 38.6 µM (inactive); in the assay on KM-20L2, 52.8 µM (inactive); in the assay on DMS-273, 32.3 µM (inactive); in the assay with LXFL 529, 28.4 µM (inactive); with M19-MEL, 36.1 µM (inactive); in the assay on XF498 it was 23 µM (inactive). Also, in the assay with SNB-78, the GI50 is 12.2 µM (inactive).

In the case of `CC(C)c1cc(C(C)C)c(S(=O)(=O)N=[N+]=[N-])c(C(C)C)c1`, the GI50 is 59.8 µM (inactive) in the assay on RXF 631; > 100 µM (inactive) in the assay with KM-20L2; 94 µM (inactive) with DMS-273; > 100 µM (inactive) with LXFL 529; 34.9 µM (inactive) in the assay with M19-MEL; > 100 µM (inactive) with XF498.

Regarding `CC(=O)C1(O)CC2(c3ccccc3)C(=O)C1(c1ccccc1)C(c1ccccc1)=C2c1ccccc1` (centres undefined), the GI50 in the assay on RXF 631 was 89.1 µM (inactive); in the assay on KM-20L2, > 100 µM (inactive); in the assay with DMS-273, 44.3 µM (inactive); in the assay on LXFL 529, > 100 µM (inactive); in the assay on M19-MEL it was > 100 µM (inactive); with XF498 it was 6.24 µM (inactive). Also, the GI50 in the assay with SNB-78 is > 100 µM (inactive).

In the case of `COC(=O)C1CC2c3c(c4ccccc4n3C)CC(C1=O)N2C` (centres undefined), the GI50 is 63.4 µM (inactive) with RXF 631; 39.8 µM (inactive) with KM-20L2; 20.2 µM (inactive) in the assay with DMS-273; 40 µM (inactive) in the assay with HOP-18; 39 µM (inactive) in the assay on LXFL 529; 49.3 µM (inactive) in the assay on M19-MEL. Moreover, the GI50 in the assay on SNB-78 was 47 µM (inactive).

Take `CN1CCCCC(C(O)(c2ccccc2)c2ccccc2)C1=O` (centres undefined): the GI50 in the assay with RXF 631 is 42.4 µM (inactive); in the assay with KM-20L2, > 100 µM (inactive); in the assay with DMS-273, 44.1 µM (inactive); with HOP-18, > 100 µM (inactive); with LXFL 529 it was 81.7 µM (inactive); in the assay with M19-MEL it was > 100 µM (inactive). Besides, the GI50 with XF498 and with SNB-78 was > 100 µM (inactive) in each case.

For the compound `CCC1C(C)c2c([nH]c3ccccc23)C2C(=O)N(c3ccccc3)C(=O)C21` (centres undefined), the GI50 with RXF 631 is 13.5 µM (inactive); with DMS-273 it was 17.8 µM (inactive); in the assay on LXFL 529 it was 19.6 µM (inactive); in the assay on M19-MEL, 15.8 µM (inactive); with XF498, 21.5 µM (inactive); with SNB-78 it was 19.2 µM (inactive).
